Data taken from the supplement of paper PMC10307832.

Key:
Test in all cases: relative viability (nuclei count vs DMSO), 5 days (fraction); higher = more cells survive
Dasatinib + Linsitinib = compound: Cc1nc(Nc2ncc(C(=O)Nc3c(C)cccc3Cl)s2)cc(N2CCN(CCO)CC2)n1 [Dasatinib] + C[C@]1(O)C[C@@H](c2nc(-c3ccc4ccc(-c5ccccc5)nc4c3)c3c(N)nccn32)C1 [Linsitinib] (partner 1 µM)
How it was run: (§1)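 Nuclei were stained with Hoechst during a one-step fixation (final 0.05% Triton X-100, 1% formaldehyde, 1 ug/ml Hoechst) carried out 5 days after dosing, then counted on 4× images. The cells, lung cancer lines in 1536-well plates, had been dosed by pin tool the day after seeding with one drug alone or a fixed anchor-drug dose plus five library-drug doses (not always all listed) in √10 steps. Relative viability is the nuclei count in treated wells divided by that in vehicle wells, and each value is the median of duplicate plates.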

XMD13-2 + Vorinostat = compound: C1CC1C(=O)NC2=NNC3=C2C=CC(=C3)C4=CC(=CC=C4)C(=O)NC5CC5 [XMD13-2] + O=C(CCCCCCC(=O)Nc1ccccc1)NO [Vorinostat] (partner 1 µM)
How it was run: as §1

XMD13-2 + Lapatinib = compound: C1CC1C(=O)NC2=NNC3=C2C=CC(=C3)C4=CC(=CC=C4)C(=O)NC5CC5 [XMD13-2] + CS(=O)(=O)CCNCc1ccc(-c2ccc3ncnc(Nc4ccc(OCc5cccc(F)c5)c(Cl)c4)c3c2)o1 [Lapatinib] (partner 2 µM)
How it was run: as §1

ALW-II-49-7 + Vorinostat = compound: Cc1ccc(C(=O)Nc2cccc(C(F)(F)F)c2)cc1Nc1cncc(C(N)=O)c1 [ALW-II-49-7] + O=C(CCCCCCC(=O)Nc1ccccc1)NO [Vorinostat] (partner 1 µM)
How it was run: as §1

Cell Line	relative viability (Dasatinib + Linsitinib; first compound 0.005 µM)	relative viability (Dasatinib + Linsitinib; first compound 0.01581 µM)	relative viability (Dasatinib + Linsitinib; first compound 0.05 µM)	relative viability (Dasatinib + Linsitinib; first compound 0.1581 µM)	relative viability (Dasatinib + Linsitinib; first compound 0.5 µM)	relative viability (XMD13-2 + Vorinostat; first compound 0.05 µM)	relative viability (XMD13-2 + Vorinostat; first compound 0.1581 µM)	relative viability (XMD13-2 + Vorinostat; first compound 0.5 µM)	relative viability (XMD13-2 + Vorinostat; first compound 1.581 µM)	relative viability (XMD13-2 + Vorinostat; first compound 5 µM)	relative viability (XMD13-2 + Lapatinib; first compound 0.05 µM)	relative viability (XMD13-2 + Lapatinib; first compound 0.1581 µM)	relative viability (XMD13-2 + Lapatinib; first compound 0.5 µM)	relative viability (XMD13-2 + Lapatinib; first compound 1.581 µM)	relative viability (XMD13-2 + Lapatinib; first compound 5 µM)	relative viability (ALW-II-49-7 + Vorinostat; first compound 0.08 µM)	relative viability (ALW-II-49-7 + Vorinostat; first compound 0.253 µM)	relative viability (ALW-II-49-7 + Vorinostat; first compound 0.8 µM)	relative viability (ALW-II-49-7 + Vorinostat; first compound 2.53 µM)	relative viability (ALW-II-49-7 + Vorinostat; first compound 8 µM)
NCI-H727	0.233	0.249	0.262	0.13	0.152	1.23	1.09	1.41	1.33	1.22	0.836	0.844	1.06	1.01	0.949	1.16	1.33	1.02	1.14	1.12
NCI-H358	0.607	0.484	0.387	0.232	0.277	0.751	0.687	0.692	0.489	0.442	0.566	0.463	0.471	0.404	0.322	1	0.694	0.805	0.574	0.447
NCI-H1437	1.02	1.03	1.09	0.859	0.377	0.879	0.815	0.756	0.793	0.786	0.911	0.849	0.858	0.793	0.683	0.831	0.926	0.822	0.756	0.699
NCI-H441	0.566	0.523	0.491	0.311	0.176	0.854	1.01	0.97	0.87	0.839						0.669	0.788	0.901	0.549	0.538
EMC-BAC-2	0.685	0.482	0.525	0.26	0.201	0.502	0.43	0.438		0.36	1.03	0.866	0.92	0.879	0.532	0.462	0.419	0.301	0.409	0.281
NCI-H647	1.02	0.46	0.627	0.319	0.192	0.706	0.59	0.822	0.746	0.425	1.14	1.31	1.22	1.02	0.369	0.539	0.642	0.599	0.321	0.349
CAL-12T	0.848	0.853	0.853	0.46	0.286	0.76	0.652	0.792	0.71	1.06	0.627		0.795	0.537	0.46	0.681	0.866	0.834	0.737	0.76
NCI-H1792	0.491	0.355	0.377	0.219	0.0845						1.1	0.873	0.951	0.777	1.06					
H3255	0.929	0.918	0.957	0.658	0.287	0.839	0.716	0.746		0.662	0.444	0.223	0.297	0.199	0.201	0.925	0.804	0.813	0.735	0.686
HCC-78	0.376	0.447	0.408	0.363	0.24	0.481	0.489	0.454	0.445	0.413	1.2	0.775	0.782	0.616	0.521	0.428	0.358	0.408	0.342	0.485
EBC-1	0.787	0.805	0.782	0.589	0.467						0.199	0.22	0.215	0.185	0.214					
NCI-H2405	0.699	0.392	0.336	0.253	0.167	1.08	0.934	1.04		0.965	1.18	1	0.95	0.957	1.09	1.08	1.14	0.968	0.905	0.789
A549	0.518	0.348	0.34	0.211	0.0589						1.2	0.974	0.938	0.811	0.891					
NCI-H3122	1.03	1.05	1.03	0.762	0.815	1.04	0.987	1.1	0.995	0.941	1.04	1.03	0.99	0.982	0.848	1.06	0.907	0.854	1.15	0.987
NCI-H1563	0.961	0.794	0.779	0.761	0.601						1.06	0.88	0.967	0.839	1.08					
HCC-44	0.619	0.51	0.669	0.27	0.131	1.11	1.17	1.21	1.09	1.09	1.01	1.12	1.08	0.957	0.771	1.14	1.11	1.11	1.12	1.09
